Data: patent EP4752149A1, “OXYGEN-CONTAINING FUSED TRICYCLIC DERIVATIVE, AND PREPARATION METHOD THEREFOR AND USE THEREOF” (Tuojie Biotech (Shanghai) Co., Ltd., priority 2023, dated 2025)

What was measured:
[1] = test system: Ovarian cancer cells (OVCAR3); assay: Inhibitory activity against ovarian cancer cells (OVCAR3), CTG cell viability; format: cell-based; settings: Homo sapiens, OVCAR-3, 168 h, 7 days with compound
Procedure: Ovarian cancer cells (OVCAR3) were cultured using an RPMI 1640 culture medium containing 10% FBS in a cell incubator (37 °C, 5% CO2). On day one, the cells were plated in a 384-well plate at a cell concentration of 800 cells/well and cultured overnight in an incubator. On day two, the cells were treated with compounds. The highest compound concentration was 10 µM and was diluted 3-fold to obtain 9 concentrations, and the final concentration of DMSO was 0.1%. After the cells were cultured in the incubator for another 7 days, the cell viability was tested using a CTG Cell Viability Detection Reagent (MCE); the testing method was consistent with the method provided by the kit. Data were processed using GraphPad Prism 8, and IC50 was calculated. [formula] X: the logarithm of the compound concentration; Y: inhibition%. Table 2. The IC50 (nM) of compounds of the present disclosure against OVCAR3

[2] = test system: Triple-negative breast cancer cells (HCC1806); assay: Inhibitory activity against triple-negative breast cancer cells (HCC1806), CTG cell viability; format: cell-based; settings: Homo sapiens, 168 h, 7 days with compound
Procedure: Triple-negative breast cancer cells (HCC1806, Nanjing Cobioer Biosciences Co., Ltd.) were cultured using an RPMI 1640 culture medium containing 10% FBS in a cell incubator (37 °C, 5% CO2). On day one, the cells were plated in a 384-well plate at a cell concentration of 200 cells/well and cultured overnight in an incubator. On day two, the cells were treated with compounds. The highest compound concentration was 10 µM and was diluted 3-fold to obtain 9 concentrations, and the final concentration of DMSO was 0.2%. After the cells were cultured in the incubator for another 7 days, the cell viability was tested using a CTG Cell Viability Detection Reagent (MCE); the testing method was consistent with the method provided by the kit. Data were processed using XLfit, and IC50 was calculated. [formula] X: the logarithm of the compound concentration; Y: inhibition%. Table 4. The IC50 (nM) of compounds of the present disclosure against HCC1806

MCF-7/Palbo-R = assay: Inhibitory activity against CDK4/6 inhibitor-resistant human breast cancer cells (MCF-7 palbociclib-resistant cell line), cell viability; format: cell-based; settings: Homo sapiens, MCF7, 120 h, 5 days with compound, CellTiter-Glo cell viability
Procedure: MCF-7/Palbo-R cell source: MCF7 cells (Nanjing Cobioer Biosciences Co., Ltd.) were treated with 1 µM palbociclib for a long time, and drug resistance was induced.
The palbociclib-resistant breast cancer cell line MCF-7/Palbo-R was cultured using a DMEM culture medium containing 10% FBS in a cell incubator (37 °C, 5% CO2). On day one, the cells were plated in a 384-well plate at a cell concentration of 800 cells/well and cultured overnight in an incubator. On day two, the cells were treated with compounds. The highest compound concentration was 10 µM and was diluted 3-fold to obtain 9 concentrations, and the final concentration of DMSO was 0.2%. After the cells were cultured in the incubator for another 5 days, the cell viability was tested using a CellTiter-Glo luminescent cell viability assay kit; the testing method was consistent with the method provided by the kit. Data were processed using XLfit, and IC50 was calculated.
The inhibition rates (IR) of the test compounds were calculated using the following formula: IR (%) = (1 - (RLU compound - RLU blank control) / (RLU vehicle control-RLU blank control)) × 100%. Table 16. The IC50 (nM) of a compound of the present disclosure against MCF-7/Palbo-R

[3] = test system: Human prostate cancer cells (22RV1); assay: Inhibitory activity against human prostate cancer cells (22RV1), CTG cell viability; format: cell-based; settings: Homo sapiens, 120 h, 5 days with compound
Procedure: Human prostate cancer cells (22RV1) were cultured using an RPMI 1640 culture medium containing 10% FBS in a cell incubator (37 °C, 5% CO2). On day one, the cells were plated in a 384-well plate at a cell concentration of 500 cells/well and cultured overnight in an incubator. On day two, the cells were treated with compounds. The highest compound concentration was 10 µM and was diluted 3-fold to obtain 9 concentrations, and the final concentration of DMSO was 0.2%. After the cells were cultured in the incubator for another 5 days, the cell viability was tested using a CTG Cell Viability Detection Reagent; the testing method was consistent with the method provided by the kit. Data were processed using XLFit, and IC50 was calculated. [formula] X: the logarithm of the compound concentration; Y: % inhibition. Table 12. The IC50 (nM) of a compound of the present disclosure against 22RV1

[4] = test system: Human breast cancer cells (MDA-MB-231); assay: Inhibitory activity against human breast cancer cells (MDA-MB-231), CTG cell viability; format: cell-based; settings: Homo sapiens, 168 h, 7 days with compound
Procedure: Human breast cancer cells (MDA-MB-231) were cultured using a DMEM culture medium containing 10% FBS in a cell incubator (37 °C, 5% CO2). On day one, the cells were plated in a 384-well plate at a cell concentration of 600 cells/well and cultured overnight in an incubator. On day two, the cells were treated with compounds. The highest compound concentration was 10 µM and was diluted 3-fold to obtain 9 concentrations, and the final concentration of DMSO was 0.2%. After the cells were cultured in the incubator for another 7 days, the cell viability was tested using a CTG Cell Viability Detection Reagent; the testing method was consistent with the method provided by the kit. Data were processed using XLFit, and IC50 was calculated. [formula] X: the logarithm of the compound concentration; Y: % inhibition. Table 8. The IC50 (nM) of a compound of the present disclosure against MDA-MB-231

CDK4/CycD1 = biological target: T1, CDK4/CycD1 (Homo sapiens, UniProt P11802); assay: Activity against cyclin-dependent kinase CDK4/CycD1 (Caliper EZ Reader mobility shift); format: biochemical; settings: 1 h at room temperature; highest concentration 1 µM
T1 construct: purchased Invitrogen PR8064A
Procedure: The test compounds (the highest concentration was 1 µM) were added using Echo 650 and serially diluted 3-fold to obtain a total of 9 concentration points. The assay plate was sealed and centrifuged at 1000 g for 1 min. 2.5× enzymes were prepared in a 1× kinase buffer (50 mM HEPES, pH 7.5, 0.0015% Brij-35, […]), and the 2.5× enzymes (10 µL) were added to the 384-well assay plate. The plate was centrifuged at 1000 g for 30 s and left to stand at room temperature for 10 min. 2.5× substrate and ATP mixtures were prepared in the 1× kinase buffer, and the 2.5× substrate and ATP mixtures (10 µL) were added to start reactions. The assay plate was centrifuged at 1000 g for 30 s, sealed, and incubated at room temperature for 1 h. 25 µL of a stop solution reagent (100 mM HEPES, pH 7.5, 0.015% Brij-35, 0.2% Coating Reagent #3, 50 mM EDTA) was added.
Conversion rate data were read on a CaliperEZ Reader. The conversion rate data were copied from the CaliperEZ Reader. The conversion rates were converted to inhibition rate data. Inhibition% = (max−conversion)/(max−min) × 100, [formula] where "min" is the reading of a control sample well to which no enzyme was added for reaction; "max" is the reading of a control well to which DMSO was added.
IC50 values were obtained by fitting using XLFit excel add-in version 5.4.0.8. Y = Bottom + (Top−Bottom)/(1+((IC50/X))^(∧)HillSlope). [formula] Table 6. […]

T1 sequence (P11802 whole entry): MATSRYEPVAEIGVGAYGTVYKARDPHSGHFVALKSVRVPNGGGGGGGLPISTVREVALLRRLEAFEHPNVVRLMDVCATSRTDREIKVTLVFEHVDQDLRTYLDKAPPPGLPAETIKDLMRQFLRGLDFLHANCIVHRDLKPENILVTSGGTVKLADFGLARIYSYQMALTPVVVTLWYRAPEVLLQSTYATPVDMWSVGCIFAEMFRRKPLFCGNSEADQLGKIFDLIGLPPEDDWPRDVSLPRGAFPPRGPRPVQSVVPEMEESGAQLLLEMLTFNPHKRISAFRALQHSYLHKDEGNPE
T1 sequence (P24385 whole entry partner): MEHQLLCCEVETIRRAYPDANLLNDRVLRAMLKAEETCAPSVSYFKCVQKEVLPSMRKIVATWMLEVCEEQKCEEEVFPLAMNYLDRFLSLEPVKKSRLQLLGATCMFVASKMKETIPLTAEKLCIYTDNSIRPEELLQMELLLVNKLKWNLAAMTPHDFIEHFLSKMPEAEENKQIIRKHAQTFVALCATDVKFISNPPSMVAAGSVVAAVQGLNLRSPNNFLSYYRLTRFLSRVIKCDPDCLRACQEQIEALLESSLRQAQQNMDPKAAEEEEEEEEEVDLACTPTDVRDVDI

Structure (SMILES): C[C@H]1COc2c(-c3nc(Nc4ccc(N5CCOCC5=O)cc4F)ncc3Cl)cc(F)c3nc(C(C)(C)O)n1c23 [Example 1, (S)-4-(4-((5-Chloro-4-(8-fluoro-2-(2-hydroxypropan-2-yl)-3-methyl-3,4-dihydro-5-oxa-1,2a-diazaacenaphthylen-6-yl)pyrimidin-2-yl)amino)-3-fluorophenyl)morpholin-3-one]
- IC50 [1]: 672 nM
- IC50 [2]: 150 nM
- IC50 (MCF-7/Palbo-R): 180 nM
- IC50 [3]: 80.3 nM
- IC50 [4]: 117 nM
- IC50 (CDK4/CycD1): 3.8 nM
